Source: patent US9132086B2, “Compositions for and methods of controlling olfactory responses to odorants” (Auburn University, priority 2006, dated 2015)

Key:
[1] = test system: rat olfactory epithelium; assay: EOG recording of rat olfactory epithelium, odorant puffs; type: cell-based; conditions: FIG. 7 chart 720; external perfusion of ZnCl2 solutions, same range of concentrations as nanoparticles (10^−9-10^−15 M)
Text: The averaged activity of the receptor neuron to an odor can be measured by an electroolfactogram (EOG). In this process, fragments of olfactory epithelaia, either cultured or dissected from natural sources (e.g., mice and dogs), are placed in an EOG recording chamber with a buffer solution. The epithelial cilia are exposed. Electrodes are connected to the tissues through a patch-clamp amplifier to detect electrical activity of the olfactory epithelia. In general air puff or plums of an odorant mixture are applied over the olfactory epithelia through a small pipet or capillary, before and after being treated with the metal composition, described in detail below. The amplitude of the electrical signal to the amount of the odorant is plotted over time after the electrical signal is amplified and filtered.
FIG. 3C is a graph 370 showing amplitude plots 371, 373, 375 and 377 of Electroolfactogram recordings. In this case rat olfactory tissue was placed in an EOG recording chamber with a buffer solution and connected to electrodes through an amplifier. Air puffs or plumes of an odorant mixture are applied over the rat olfactory tissue and the electrical response was measured and the normalized peak amplitudes were plotted over time over time.
FIG. 5 illustrates EOG traces from rat olfactory epithelium. Responses were induced by air odorants and a mixture of odorants and zinc metal particles. […]

[2] = test system: olfactory receptor neurons; assay: Whole-cell patch-clamp recording of single olfactory neurons; type: cell-based, rat; conditions: FIG. 7
Text: FIG. 6 illustrates electrophysiological recordings from a rat olfactory epithelium and a single olfactory neuron where the stimulus was a 0.5-s pulse of air or an odorant mixture. The odorant concentration was constant for all traces. […] Vapor of odorants were collected above the odorant solutions (in water) of concentrations shown. […] The stimulus was a 0.5 second pulse of odorant/zinc particle mixture. Downward direction indicates inward current.
FIG. 7 illustrates results from EGTA experiments and Zn^+2 ions experiments. […] It is widely known that EGTA binds multivalent metals. When Zn metal nanoparticles are bound by EGTA, the number of particles participating in olfactory signal transduction is reduced, and the odorant response is decreased. […] When the patch electrode is filled with a solution containing 500 pM EGTA, the odorant-evoked current changes markedly. Few minutes after beginning the perfusion, a progressive […] in the amplitude of the odorant triggered inward currents is noted.

| odorant response by olfactory receptor neurons [1] | SMILES | effect on odorant response measured by patch-clamp ([2]; 500 pM perfused inside olfactory neurons) | dose dependence of the effect on odorant response ([2]; perfused inside olfactory neurons) |
| --- | --- | --- | --- |
| reduced | [Zn+2] [Zn^+2 ions, ZnCl2] |  |  |
|  | O=C(O)CN(CCOCCOCCN(CC(=O)O)CC(=O)O)CC(=O)O [EGTA, ethylene glycol tetraacetic acid] | clearly inhibit odorant response | dose dependent |
